Earlier results in patent US11045550B2, “Use of an amino sugar as plasticizer” (Merck Patent GmbH, priority 2016, dated 2021).
One block for each molecule: values may come before it.

Tests used:
[1] = at 144° C., literature data

Ibuprofen degraded when processed by HME [1]: 11.6%
Structure (SMILES): CC(C)Cc1ccc(C(C)C(=O)O)cc1 (stereo not shown) [Ibuprofen]

pKa (strongest basic): 3.92
Structure (SMILES): CCC(C)n1ncn(-c2ccc(N3CCN(c4ccc(OCC5COC(Cn6cncn6)(c6ccc(Cl)cc6Cl)O5)cc4)CC3)cc2)c1=O (stereo not shown) [Itraconazole]

Structure (SMILES): CNC[C@@H](O)[C@@H](O)[C@H](O)[C@H](O)CO [Meglumine, D-(−)-N-Methylglucamine]
pKa value: 9.60

pKa (strongest acidic): 3.65
Structure (SMILES): CCCc1nc2c(C)cc(-c3nc4ccccc4n3C)cc2n1Cc1ccc(-c2ccccc2C(=O)O)cc1 [Telmisartan]
